Key:
[1] = tested on: BDNF and GluN2B expression in 293T cells; experiment: RT-PCR of BDNF and GluN2B mRNA in 293T cells; assay type: cell-based, human; conditions: 6 hours after treating 293T cells, vs untreated group
Experimental: RT-PCR was used to measure the amount of BDNF and GluN2B in response to compounds of the present disclosure. 293T cells were dissociated using 0.05% Trypsin-EDTA solution and seeded in 24 well or 6 well dishes for RNA work. After incubation at 37° C. in a humidified atmosphere with 5% CO2 for 24 hours, the culture medium was replaced by a medium containing a series of concentrations of tested compounds diluted with the DMEM without FBS. Time course experiments were performed. The same volume of DMSO was used for negative control.
RNA was isolated from the cells after the compound treatment. After removing growth media, 0.3 to 0.4 mL of TRIzol™ per 1×10^5 to 10^7 cells were added directly to the culture dish to lyse the cells. […] RNA concentration was determined with the Thermo Scientific™ ρDrop™ plate. RNA quality was determined by measuring A230/260 and A260/280 ratio. […]
The PCR product was analyzed by agarose gel electrophoresis. […]
The BnH12 series drug according to the present disclosure was synthesized as a compound targeting HDAC4, which inhibits the expression of BDNF. […] In addition, it is known that the increase in the expression of BDNF increases the expression of GluN2B, and the mRNA level of GluN2B was also measured together with BDNF to measure the efficacy of BnH12001 in degrading HDAC4.

[2] = tested on: APP/PS1 mice sensory cerebral cortex; experiment: TC potency and GABA/AMPA ratio in sensory cortex of Alzheimer's animal model; assay type: in vivo
Experimental: For intravenous injection, the tail vein injection method was used. […] In the drug injection test, the compound was administered once a day for about 11 to 13 days. 5 mice were used for the compound administration group and the control group, respectively.
For TC or hippocampus slice preparation. 9 to 10 weeks-old male C57BL/6J mice were anesthetized with isoflurane. Then, the brain was rapidly cooled via transcardial perfusion with ice-cold sucrose-artificial cerebrospinal fluid (aCSF). The brain was removed and placed in ice-cold sucrose aCSF. Paracoronal slices were prepared at an angle of 50° relative to the midline on a ramp at an angle of 10°. […]
For the minimal stimulation protocol (Potency), VB thalamic stimulation intensity was adjusted to find the lowest intensity that elicited a mixture of synaptic responses and failures. Failure rate was calculated as the number of failures/total number of trials. Potency was calculated as the mean EPSC peak amplitude excluding failures (see Chittajallu & Isaac, 2010, Emergence of cortical inhibition by coordinated sensory-driven plasticity at distinct synaptic loci, DOI: 10.1038/nn.2639; see Isaac et al., 1997, Silent Synapses during Development of Thalamocortical Inputs, https://doi.org/10.1016/S08966273((0)80267-6; and see Stevens & Wang, 1995, Facilitation and depression at single central synapses, DOI: 10.1016/08966273(95)90223-6). […]

Compound	BDNF mRNA level [1]	GluN2B mRNA level [1]	Balance of excitation/inhibition (GABA/AMPA ratio) [2]	Excitatory TC synaptic potency (TC potency) [2]
CC1CCC(C(=O)O)CN1C(=O)Cc1ccc(F)cc1Cl (racemic) [BnH12001, 1-(2-(2-chloro-4-fluorophenyl)acetyl)-6-methylpiperidine-3-carboxylic acid]	significantly increased	significantly increased	–	–
C[C@@H]1CC[C@H](C(=O)O)CN1C(=O)Cc1ccc(F)cc1Cl [BnH12001 enantiomer (3S,6R, 98%<), (3S,6R)-1-(2-(2-chloro-4-fluorophenyl)acetyl)-6-methylpiperidine-3-carboxylic acid]	–	–	maintaining the balance of excitation/inhibition	increased the excitatory TC synaptic potency
